Test results as given in the NIST ThermoML archive (doi:10.1021/je900210h).
“And” between values parts separate entries of the source, which are not always exact repeats. Equal entries are not always repeated.

Details: Fluid (supercritical or subcritical phases), Coaxial cylinder method

FCC(F)(F)F [1,1,1,2-tetrafluoroethane]
Details	thermal conductivity
379.09 K, 4452 kPa	0.0625 W/m/K
379.09 K, 4460 kPa	0.0627 W/m/K
379.09 K, 4464 kPa	0.063 W/m/K
379.09 K, 4470 kPa	0.063 W/m/K
379.09 K, 4475 kPa	0.063 W/m/K
379.09 K, 4484 kPa	0.063 W/m/K
379.09 K, 4500 kPa	0.0627 W/m/K
379.1 K, 4331 kPa	0.0441 W/m/K
379.17 K, 300 kPa	0.02023 W/m/K
379.22 K, 4504 kPa	0.0628 W/m/K
379.23 K, 4452 kPa	0.0608 W/m/K
379.23 K, 4453 kPa	0.0614 W/m/K
379.23 K, 4520 kPa	0.062 W/m/K
379.23 K, 4530 kPa	0.0615 W/m/K
379.24 K, 4540 kPa	0.0609 W/m/K
379.24 K, 4547 kPa	0.0606 W/m/K
379.24 K, 4560 kPa	0.0601 W/m/K
379.24 K, 4570 kPa	0.0599 W/m/K
379.25 K, 4442 kPa	0.0593 W/m/K
379.25 K, 4600 kPa	0.0591 W/m/K
379.25 K, 4620 kPa	0.0587 W/m/K
379.25 K, 4642 kPa	0.0584 W/m/K
379.26 K, 4431 kPa	0.0573 W/m/K
379.26 K, 4662 kPa	0.0579 W/m/K
379.26 K, 4680 kPa	0.0577 W/m/K
379.26 K, 4703 kPa	0.0575 W/m/K
379.26 K, 4739 kPa	0.0573 W/m/K
379.26 K, 4766 kPa	0.0573 W/m/K
379.26 K, 4806 kPa	0.057 W/m/K
379.27 K, 4424 kPa	0.0559 W/m/K
379.28 K, 4414 kPa	0.0545 W/m/K
379.29 K, 4404 kPa	0.053 W/m/K
379.3 K, 4396 kPa	0.0516 W/m/K
379.32 K, 4386 kPa	0.0501 W/m/K
379.33 K, 4376 kPa	0.0487 W/m/K
379.34 K, 4369 kPa	0.0478 W/m/K
379.36 K, 4355 kPa	0.0462 W/m/K
379.37 K, 4346 kPa	0.0453 W/m/K
379.39 K, 4330 kPa	0.0437 W/m/K
379.4 K, 4309 kPa	0.0422 W/m/K
379.4 K, 4317 kPa	0.0427 W/m/K
379.4 K, 4838 kPa	0.0567 W/m/K
379.4 K, 4888 kPa	0.0562 W/m/K
379.41 K, 4932 kPa	0.0558 W/m/K
379.41 K, 5000 kPa	0.0554 W/m/K
379.41 K, 5051 kPa	0.055 W/m/K
379.42 K, 4288 kPa	0.0408 W/m/K
379.43 K, 150 kPa	0.02035 W/m/K
379.43 K, 154 kPa	0.0231 W/m/K
379.43 K, 4282 kPa	0.0405 W/m/K
379.45 K, 4254 kPa	0.0389 W/m/K
379.47 K, 4224 kPa	0.0376 W/m/K
379.48 K, 4200 kPa	0.0367 W/m/K
379.5 K, 4165 kPa	0.0355 W/m/K
379.5 K, 4175 kPa	0.0358 W/m/K
379.72 K, 160 kPa	0.01996 W/m/K
381.53 K, 4627 kPa	0.0551 W/m/K
381.53 K, 4640 kPa	0.0555 W/m/K
381.53 K, 4650 kPa	0.056 W/m/K
381.53 K, 4660 kPa	0.0562 W/m/K
381.53 K, 4670 kPa	0.0565 W/m/K
381.53 K, 4680 kPa	0.0565 W/m/K
381.54 K, 4700 kPa	0.0562 W/m/K
381.54 K, 4760 kPa	0.056 W/m/K
381.55 K, 4612 kPa	0.0542 W/m/K
381.55 K, 4780 kPa	0.0558 W/m/K
381.55 K, 4800 kPa	0.0555 W/m/K
381.55 K, 4815 kPa	0.0553 W/m/K
381.56 K, 4600 kPa	0.0536 W/m/K
381.56 K, 4830 kPa	0.0551 W/m/K
381.56 K, 4860 kPa	0.0549 W/m/K
381.56 K, 4900 kPa	0.0542 W/m/K
381.56 K, 4920 kPa	0.0542 W/m/K
381.56 K, 4950 kPa	0.0543 W/m/K
381.56 K, 4982 kPa	0.0543 W/m/K
381.56 K, 5016 kPa	0.0543 W/m/K
381.56 K, 5068 kPa	0.0543 W/m/K
381.57 K, 5092 kPa	0.0539 W/m/K
381.57 K, 5125 kPa	0.0538 W/m/K
381.57 K, 5136 kPa	0.0538 W/m/K
381.57 K, 5169 kPa	0.0536 W/m/K
381.57 K, 5201 kPa	0.0536 W/m/K
381.58 K, 4569 kPa	0.0518 W/m/K
381.6 K, 4530 kPa	0.0495 W/m/K
381.61 K, 4516 kPa	0.0483 W/m/K
381.61 K, 4520 kPa	0.0487 W/m/K
381.61 K, 4525 kPa	0.049 W/m/K
381.62 K, 4510 kPa	0.0478 W/m/K
381.63 K, 4490 kPa	0.0464 W/m/K
381.63 K, 4500 kPa	0.0472 W/m/K and 0.0468 W/m/K
385.18 K, 4940 kPa	0.0522 W/m/K
